Molecules are shown by their SMILES.

What all share (type): in vivo
For assay [1], the system named is Amaranthus tamariscinus (common waterhemp, AMATA), sensitive biotype (w.4). As to the kind of experiment: another greenhouse experiment, weed control, sensitive common waterhemp (w.4). The conditions noted are these: use rate 4 g/ha; scale 0 to 100. From the text: (§1) The culture containers used were plastic flowerpots containing loamy sand with approximately 3.0% of humus as the substrate. The seeds of the test plants were sown separately for each species and/or resistant biotype. For the pre-emergence treatment, the active ingredients, which had been suspended or emulsified in water, were applied directly after sowing by means of finely distributing nozzles. The containers were irrigated gently to promote germination and growth and subsequently covered with transparent plastic hoods until the plants had rooted. This cover caused uniform germination of the test plants, unless this had been impaired by the active ingredients. For the post-emergence treatment, the test plants were first grown to a height of 3 to 15 cm, depending on the plant habit, and only then treated with the active ingredients which had been suspended or emulsified in water. For this purpose, the test plants were either sown directly and grown in the same containers, or they were first grown separately as seedlings and transplanted into the test containers a few days prior to treatment. Depending on the species, the plants were kept at 10-25° C. or 20-35° C., respectively. The test period extended over 2 to 4 weeks. During this time, the plants were tended, and their response to the individual treatments was evaluated. The evaluation was carried out by using a scale from 0 to 100. […]

Assay [2] has as its system Amaranthus tamariscinus (common waterhemp, AMATA), PPO resistant biotype 1 (w.2). As to the kind of experiment: greenhouse experiment, weed control, PPO resistant biotype 1 (w.2). The conditions noted are these: for activity on sensitive and resistant weeds (in words): summary of table 2: sensitive (w.1) and resistant weeds (w.2, w.3); for Weed control (%) w.2: scale 0 to 100. From the text: (§2) The culture containers used were plastic flowerpots containing loamy sand with approximately 3.0% of humus as the substrate. The seeds of the test plants were sown separately for each species and/or resistant biotype. For the pre-emergence treatment, the active ingredients, which had been suspended or emulsified in water, were applied directly after sowing by means of finely distributing nozzles. The containers were irrigated gently to promote germination and growth and subsequently covered with transparent plastic hoods until the plants had rooted. This cover caused uniform germination of the test plants, unless this had been impaired by the active ingredients. For the post-emergence treatment, the test plants were first grown to a height of 3 to 15 cm, depending on the plant habit, and only then treated with the active ingredients which had been suspended or emulsified in water. For this purpose, the test plants were either sown directly and grown in the same containers, or they were first grown separately as seedlings and transplanted into the test containers a few days prior to treatment. Depending on the species, the plants were kept at 10-25° C. or 20-35° C., respectively. The test period extended over 2 to 4 weeks. During this time, the plants were tended, and their response to the individual treatments was evaluated. The evaluation was carried out by using a scale from 0 to 100. 100 means no emergence of the plants or complete destruction of at least the above-ground parts, and 0 means no damage, or normal course of growth.
(§3) The plants used in a first greenhouse experiment were of the following species and biotype: […]

In assay [3] the test system is Amaranthus tamariscinus (common waterhemp, AMATA), sensitive biotype (w.1). As to the kind of experiment: greenhouse experiment, weed control, sensitive common waterhemp (w.1).
Source text: as §2, §3

Assay [4] deals with Amaranthus tamariscinus (common waterhemp, AMATA), PPO resistant biotype 3 containing the ΔG210 mutation (w.5). Briefly: another greenhouse experiment, weed control, PPO resistant biotype 3 (w.5).
Source text: as §1

Assay [5] relates to Amaranthus tamariscinus (common waterhemp, AMATA), PPO resistant biotype 2 (w.3). As to the kind of experiment: greenhouse experiment, weed control, PPO resistant biotype 2 (w.3). The conditions noted are these: scale 0 to 100.
Source text: as §2, §3

Assay [6] has as its system Amaranthus tamariscinus (common waterhemp, AMATA), PPO resistant biotype 4 containing the ΔG210 mutation (w.6). Briefly: another greenhouse experiment, weed control, PPO resistant biotype 4 (w.6). The conditions noted are these: use rate 4 g/ha; scale 0 to 100.
Source text: as §1

Where [7] appears, read: use rate 2 g/ha, scale 0 to 100.
[8] abbreviates: use rate 4 g/ha, scale 0 to 100 (100 = complete destruction, 0 = no damage).

Turning to `COC(=O)CCNC(=O)C(C)Sc1cc(-n2c(=O)cc(C(F)(F)F)n(C)c2=O)c(F)cc1Cl` (stereo not drawn) [(I).1, tiafenacil], the “Weed control (%) w.4” value in assay [1] was determined as 92%. In addition, the “activity on sensitive and resistant weeds (in words)” value in assay [2] was “very good activity on both sensitive (w.1) and resistant weeds (w.2, w.3)”; in assay [4] (summary of table 3: sensitive (w.4) and resistant weeds (w.5, w.6) containing the ΔG210 mutation) it was “very good activity on both sensitive (w.4) and resistant weeds (w.5, w.6)”. Moreover, the “Weed control (%) w.2” value in assay [2] (use rate 2 g/ha) is recorded as 83%; in assay [2] (use rate 4 g/ha), 91%. Moreover, the “Weed control (%) w.1” value in assay [3] (setting [7]) is 90%; in assay [3] (setting [8]), 99%. Further, in assay [4] (use rate 4 g/ha, scale 0 to 100), the “Weed control (%) w.5” value was 95%. In addition, the “Weed control (%) w.3” value in assay [5] (use rate 2 g/ha) is recorded as 78%; in assay [5] (use rate 4 g/ha), 85%. Also, the “Weed control (%) w.6” value in assay [6] came to 88%.
`C#CCOc1cc(-n2nc3n(c2=O)CCCC3)c(Cl)cc1Cl` [azafenidin, reference compound]: in assay [2], the “activity on sensitive and resistant weeds (in words)” value is given as “much weaker control of resistant in comparison to sensitive biotypes”. Besides, the entries for the “Weed control (%) w.2” value in assay [2] (use rate 2 g/ha) and in assay [2] (use rate 4 g/ha) were 67% and 73%, respectively. The “Weed control (%) w.1” value came to 95% in assay [3] (setting [7]) and 98% in assay [3] (setting [8]). Also, the “Weed control (%) w.3” value in assay [5] (use rate 2 g/ha) was 70%; in assay [5] (use rate 4 g/ha), 72%.

(Values after patent US11723365B2, “Method for controlling PPO resistant weeds” (BASF SE, priority 2016, dated 2023).)
